Publication PMC12410356 (International Journal for Parasitology: Drugs and Drug …, 2025)

Key:
[1] = tested on: E. multilocularis metacestode vesicles; assay: Phosphoglucose isomerase (PGI) release assay (damage-marker release) on metacestode vesicles; assay type: cell-based, Echinococcus multilocularis; details: 10 μM; for PGI d5 (relative PGI release): 5 days; for PGI d12 (relative PGI release): 12 days
Description: In order to quantify the drug-induced damage on whole metacestode vesicles, phosphoglucose isomerase (PGI) assay was performed as described previously ([Stadelmann et al., 2010]) with few adaptations published recently ([Kaethner et al., 2023]). In short, 8 to 12 weeks-old metacestode vesicles were purified using 2 % sucrose with subsequent washes in PBS. Metacestode vesicles were diluted in two volumes of DMEM without phenol red containing penicillin (100 U/mL) and streptomycin (100 μg/mL). […] 0.1 % DMSO was used as a negative solvent control and 0.1 % Triton X-100 was used as a positive total damage control. Metacestode vesicles were incubated under a humid, 5 % CO2 atmosphere at 37 °C. After five and twelve days, supernatant was taken and pictures were made using a Nikon SMZ18 stereo microscope (Nikon, Basel, Switzerland) at 7.5 × magnification. PGI activity in the supernatants was measured on a HIDEX Sense microplate reader (Hidex, Turku, Finland). The corresponding values of the DMSO controls were subtracted from the values of the compounds and then PGI activity was calculated relative to 0.1 % Triton X-100. […] IC50 values were calculated applying the 3 parameter Weibull type 1 in R for each of the three independent experiments ([Ritler et al., 2020]).

[2] = tested on: E. multilocularis metacestode vesicles; assay: Metacestode vesicle viability assay (ATP, CellTiter-Glo); assay type: cell-based, Echinococcus multilocularis
Description: Viability was assessed after 12 days using the same metacestode vesicles as for the PGI release assay. Triton X-100 was added to each well to a final concentration of 0.1 %. Subsequently the metacestode vesicles were broken mechanically and 50 μL of the supernatant was mixed with 50 μL of CellTiter-Glo® buffer (Promega, Dübendorf, Switzerland). Measurements were performed on a HIDEX Sense microplate reader.

[3] = overview screen, singlets, relative to 0.1 % Triton X-100, DMSO subtracted
[4] = overview screen, 10 μM, singlets, 12 days, relative to DMSO control
[5] = confirmation screen, triplicates, mean
[6] = confirmation screen, 10 μM, triplicates, mean, 12 days

SMILES | PGI d5 (relative PGI release) [1, 3] [%] | PGI d12 (relative PGI release) [1, 3] [%] | Viability d12 (relative viability) [2, 4] [%] | PGI d5 (relative PGI release) [1, 5] [%] | PGI d12 (relative PGI release) [1, 5] [%] | Viability d12 (relative viability) [2, 6] [%] | Viability d12 (relative viability) ([2]; 10 µM) [%]
Cn1cncc1[C@@](N)(c1ccc(Cl)cc1)c1ccc2c(c1)c(-c1cccc(Cl)c1)cc(=O)n2C [MMV658803] | 0.7883 | -2.529 | 92.252 | – | – | – | –
CC(C)=CCC/C(C)=C\CNCCNC1C2CC3CC(C2)CC1C3 (stereo not drawn) [MMV687273] | 0.6754 | -4.6575 | 47.5933 | – | – | – | –
CCc1nc2ccc(Cl)cn2c1C(=O)NCc1ccc(N2CCC(c3ccc(OC(F)(F)F)cc3)CC2)cc1 [MMV687696] | -3.859 | -6.627 | 83.8288 | – | – | – | –
CC(C)N=c1cc2n(-c3ccc(Cl)cc3)c3ccccc3nc-2cc1Nc1ccc(Cl)cc1 [MMV687800] | 10.9227 | 104.553 | 4.175 | 0.81 | 1.29 | 142.49 | –
CC[C@H](CO)NCCN[C@H](CC)CO [MMV687801] | -2.724 | 9.893 | 117.919 | – | – | – | –
O=[N+]([O-])c1cn2c(n1)OC[C@@H](OCc1ccc(OC(F)(F)F)cc1)C2 [MMV688755] | -1.0977 | -12.4687 | 91.4293 | – | – | – | –
CC(=O)NC[C@H]1CN(c2ccc(N3CCSCC3)c(F)c2)C(=O)O1 [MMV688756] | -1.412 | -2.526 | 97.3563 | – | – | – | –
O=C(NCc1ncc(C(F)(F)F)cc1Cl)c1c(Cl)cccc1Cl [MMV689401] | -2.654 | -25.1085 | 22.5442 | – | – | – | –
COc1nc2ccc(Br)cc2cc1[C@@H](c1ccccc1)[C@@](O)(CCN(C)C)c1cccc2ccccc12 [MMV689758] | -2.925 | -4.755 | 111.826 | – | – | – | –
Cc1cc(CCCOc2c(C)cc(-c3noc(C(F)(F)F)n3)cc2C)on1 [MMV690467] | 0.4162 | 0.2856 | 74.4224 | – | – | – | –
COc1ccccc1CN[C@H]1C2CCN(CC2)[C@H]1C(c1ccccc1)c1ccccc1 [MMV690480] | -0.6012 | -18.8913 | 61.0456 | – | – | – | –
Nc1nc(=O)c(Br)c(-c2ccccc2)[nH]1 [MMV690540] | 2.1344 | 38.5177 | 20.6612 | 0.19 | 1.01 | 98.22 | –
CCOCc1nc2c(N)nc3ccccc3c2n1CC(C)(C)O [MMV690547] | 0.01909 | 53.3537 | 9.628 | 0.18 | 0.96 | 159.08 | –
FC(F)(F)c1cc(C(F)(F)F)c2ccc3nc(-c4nnco4)cn3c2n1 [MMV690555] | 0.9496 | 0.5886 | 300.676 | – | – | – | –
O=C(NC1CCCc2c1[nH]c1ccc(Cl)cc21)c1ccccn1 (stereo not drawn) [MMV690621] | 0.1463 | -17.1395 | – | – | – | – | 144.507
O=C(NO)C1(CS(=O)(=O)c2ccc(Oc3ccc(Cl)cc3)cc2)CCOCC1 [MMV690706] | 0.06885 | -1.025 | 178.089 | – | – | – | –
CN(C)CCNC(=O)c1cccc2cccnc12 [MMV811071] | 0.8254 | 33.0305 | 78.9047 | – | – | – | –
CCc1ccc(C2CC(C(F)(F)F)n3ncc(C(=O)NCc4ccc(OC)cc4)c3N2)cc1 (stereo not drawn) [MMV831201] | -0.786 | -0.2956 | 124.843 | – | – | – | –
Nc1cc(-c2nc3ccccc3[nH]2)n[nH]c1=O [MMV975972] | 0.8096 | -4.832 | 175.408 | – | – | – | –
O=C1C=C(c2ccccc2)S(=O)(=O)c2ccccc21 [MMV1006203] | 0.2239 | 0.7153 | 120.957 | – | – | – | –

SMILES | PGI d5 (relative PGI release) [1, 3] [%] | PGI d12 (relative PGI release) [1, 3] [%] | Viability d12 (relative viability) [2, 4] [%] | PGI d5 (relative PGI release) [1, 5] [%] | PGI d12 (relative PGI release) [1, 5] [%] | Viability d12 (relative viability) [2, 6] [%] | Viability d12 (relative viability) ([2]; 10 µM) [%]
CC(C)Oc1cccc(NC(=O)c2ccccc2C(F)(F)F)c1 [MMV1009286] | -2.405 | -25.3832 | 77.2348 | – | – | – | –
O=C(c1ccc(F)cc1)N1CCN2C(=O)c3ccccc3C12c1ccccc1 (stereo not drawn) [MMV1165877] | 6.429 | 52.7291 | 23.1723 | 0.55 | 0.41 | 130.42 | –
CC(C)(C)c1ccc(Oc2ccc(N)cc2)cc1 [MMV1174026] | -0.5482 | 16.4911 | 305.195 | – | – | – | –
CC(C)(C)c1cc(CCC(=O)N2CCC2)cc(C(C)(C)C)c1O [MMV1229204] | -1.987 | -10.8726 | 39.6611 | – | – | – | –
O=C(NCc1ccccc1Cl)c1cnc2ccccc2n1 [MMV1230557] | -1.462 | -11.048 | 58.5314 | – | – | – | –
O=C(NCc1ccc2c3c(cccc13)C(=O)N2)c1cccs1 [MMV1341773] | -1.3816 | -12.533 | 18.2024 | – | – | – | –
COc1c(F)c(F)cc2c(=O)c(C(=O)O)cn(C3CC3)c12 [MMV1480967] | 0.2423 | -3.0894 | 115.193 | – | – | – | –
COc1ccc(NC(=O)CC2Sc3ncnn3C2=O)cc1 (stereo not drawn) [MMV1483032] | 0.1451 | -11.504 | 68.4676 | – | – | – | –
O=S(=O)(Nc1ccc(-n2cccc2)cc1)c1ccc(Cl)c(Cl)c1 [MMV1505642] | -0.09064 | -9.692 | 76.9008 | – | – | – | –
CC1(C)Cc2c(C#N)c(SCCc3ccccc3)nc(N3CCOCC3)c2CO1 [MMV1549626] | -2.265 | -14.2052 | 93.3497 | – | – | – | –
CC[C@H](NC(=O)[C@H](C)NC)C(=O)N1C[C@@H](O)C[C@H]1Cc1c(-c2[nH]c3cc(F)ccc3c2C[C@@H]2C[C@H](O)CN2C(=O)[C@H](CC)NC(=O)[C@H](C)NC)[nH]c2cc(F)ccc12 [MMV1557856] | -1.122 | -0.1165 | 106.397 | – | – | – | –
O=C1NC(=O)C(Br)=C1Br [MMV1578554] | 3.162 | 5.51 | 135.147 | – | – | – | –
O=C(Nc1ccc(F)cc1)c1nn(-c2ccccc2)c(=O)cc1Cl [MMV1578555] | 4.414 | 31.7823 | 71.8821 | – | – | – | –
C[C@H]1CC[C@@]2(O)C(C)(C)[C@@H]3CC[C@@]2(C)[C@H]1C3 [MMV1578556] | -0.5138 | -7.5984 | 153.384 | – | – | – | –
Cc1c(N)cccc1Cn1ccc(OCCc2cccs2)cc1=O [MMV1578557] | -0.9531 | -14.0356 | 70.6385 | – | – | – | –
CCc1oc2ccccc2c1C(=O)c1ccc(O)cc1 [MMV1578558] | -2.405 | 11.8922 | 72.3877 | – | – | – | –
CO[C@@]1(NC(=O)Cc2cccs2)C(=O)N2C(C(=O)O)=C(COC(N)=O)CS[C@@H]21 [MMV1578559] | -1.349 | -7.289 | 75.9823 | – | – | – | –
NCC(=O)Nc1ccc(-n2nc(C(F)(F)F)cc2-c2ccc3c(ccc4ccccc43)c2)cc1 [MMV1578560] | 3.295 | 35.9177 | 75.9823 | – | – | – | –
CCCCCCCc1[nH]c2ccccc2c(=O)c1O [MMV1578561] | -1.205 | -12.6441 | 124.494 | – | – | – | –
